Reference: patent US20250263404A1, “AMINOPYRIDINES AS ACTIVATORS OF PI3 KINASE” (UCL Business Ltd, priority 2021, published 2025)

How the values were obtained:
[1] = system: PI3Kα-WT and PI3Kα-KO MEFs; test: CellTiter-Glo ATP content in MEFs; assay type: cell-based, mouse
Experimental: A role for PI3Kα in activation of anabolic metabolism, cell cycle progression and cell proliferation is well-established.
MEFs were seeded at 5000 cells per well in 96-well plates in DMEM supplemented with 10% FBS and 1% P/S, and allowed to attach overnight. The next day, cells were serum starved for 4 h prior to compound treatment in fresh serum-free DMEM. Compounds solubilised in DMSO were diluted 1:2 in a 12-point concentration response curve in DMSO. Intermediate plates were prepared by transferring 4 μl of compounds in DMSO into 96 μl of serum-free DMEM media. This was then used to treat cell plates by transferring 12.5 μl of solution from the intermediate plate into 87.5 μl of serum-free DMEM in the cell plates. […] Cell plates were incubated for 24 h, 48 h or 72 h at 37° C., 5% CO2, followed by determination of cell survival using the CellTiter-Glo® reagent according to manufacturer's instructions (Promega #G7571). Endpoint luminescence was measured using CLARIOstar (BMG). Compound data were analyzed using GraphPad Prism 8.

[2] = biological target: T1, mTORC1 (mTOR/RAPTOR/LST8 complex) (Homo sapiens, UniProt P42345); test: mTORC1 kinase assay (Phos-tag gel); assay type: biochemical; settings: 200 μM 1938
T1 construct: made in house
Experimental: 133 protein kinases and 7 lipid kinases were counterscreened, with […] used at 1 μM, using the Adapta, Lantha and Z-LYTE assays (SelectScreen Kinase Profiling Service; Thermofisher—experimental details of these assays can be found here: https://www.thermofisher.com/uk/en/home/industrial/pharma-biopharma/drug-discovery-development/target-and-lead-identification-and-validation/kinasebiology/kinase-activity-assays.html. The tree representation in KinMap generated courtesy of Cell Signaling Technology, Inc. (www.cellsignal.com). mTORC1 (mTOR/RAPTOR/LST8) protein complex and ATM kinase and substrates were produced as previously described (Anandapadamanaban, M. et al. Science (New York, NY 366, 203-210 (2019); Baretic, D. et al. Sci Adv 3, e1700933 (2017). Screening of 1938 was conducted using SuperSep Phos-Tag 50 μmol/l 100×100×6.6 mm 17-well (192-18001/199-18011) gels. For ATM assays, 100 nM ATM was incubated for 30 min at 30° C. with 5 μM GST-p53 and 1 mM ATP, in the absence or presence of 200 μM 1938 in ATM Kinase Buffer (50 mM HEPES pH 7.5, 100 mM NaCl, 10% glycerol, 2 mM […], 5 mM MgCl2). […] Gels were then stained using InstantBlue™ Coomassie stain, and then quantified using BioRad Image Lab Software. […]

- concentrations that decreased ATP levels (PI3Kα-independent effects) ([1]; 24 h incubation, PI3Kα-WT and PI3Kα-KO MEFs): > 7.5 µM
- concentrations with non-PI3Kα-dependent effects ([1]; 48 h and 72 h incubation): ≥ 2 µM
- activity of mTORC1 [2]: did not affect
Compound: CCN1CCN(c2ccc(Nc3cc(Nc4cccc5c4N(C(C)=O)CC5)ccn3)cc2)CC1 [Example 1938]
- EC50 ([1]; Mus musculus, PI3Kα-WT MEFs, CellTiterGlo, read-out: EC50 of increase in metabolic activity (ATP content)): ~500 nM
